Experimental data as given in patent US8142714B2, “Cleaning and disinfection of surgical and medical instruments and appliances” (Chemische Fabrik Dr. Weigert GmbH & Co. KG, priority 2002, dated 2012).

How the values were obtained:
[1] = Surface tension as specified in DIN 53993; type: physicochemical; settings: NaOH in deionized water, cleaner 1% by volume in Hamburg city water
Method: The cleaning solution diluted in ready-to-use form preferably has a surface tension of less than 50 mN/m, preferably less than 40 mN/m, further preferably less than 35 mN/m, further preferably less than 30 mN/m. The surface tension is determined by the plate-ring method as specified in DIN 53993.
The surface tension was determined as specified in DIN 53993 for the following liquids: […]

[2] = Cleaning of roughened microscope slides dirtied with blood-egg yolk mixture, immersion bath; settings: 50 mg blood-egg yolk mixture dried at 55° C. for 2 h; stirred immersion bath 10 min at room temperature; cleaner 1% strength by volume
Method: Roughened microscope slides are dirtied with 50 mg of a blood-egg yolk mixture, dried at 55° C. for 2 h and then immersed in a stirred bath for 10 min at room temperature. The medium used for the immersion bath is deionized water, 0.1 N NaOH or a 1% strength by volume cleaning solution of the cleaning composition concentrate according to example 1. The residual amount of fouling then determined is 20% by weight for water, 35% by weight for 0.1 N NaOH and less than 5% by weight for the cleaner, as immersion bath medium used.

surface tension [1]: 72 mN/m
Compound: [Na+].[OH-] [0.1 N NaOH, NaOH]
residual amount of fouling [2]: 35 % by weight
